Source: patent publication US11298367B2, “Prodrugs of substituted triazole derivatives and uses thereof” (Bayer Aktiengesellschaft, priority 2017, dated 2022)
Converted amounts (≈) assume the structure as drawn.

Legend:
human V1a receptor = biological target: T1, human V1a receptor (Homo sapiens, UniProt P37288); assay: Cellular in vitro assay for vasopressin receptor activity (V1a, aequorin luminescence); format: cell-based; details: for IC50: CHO cell line with human V1a receptor, [Arg8]-vasopressin at EC50, values are for the prodrug as such, read-out: IC50 hV1a; for ratio IC50 hV2/hV1a: selectivity ratio hV2/hV1a
T1 construct: expressed in transfected cells; host or cells: CHO K1 (Chinese hamster ovary), also stably transfected with a modified aequorin

human V2 receptor = biological target: T2, human V2 receptor (Homo sapiens, UniProt P30518); assay: Cellular in vitro assay for vasopressin receptor activity (V2, CRE-luciferase); format: cell-based; details: CHO cell line with human V2 receptor, [Arg8]-vasopressin at EC50; values are for the prodrug as such; read-out: IC50 hV2
T2 construct: expressed in transfected cells; host or cells: CHO K1 cells expressing firefly luciferase under a CRE-responsive promoter
Description: B-1. Cellular In Vitro Assay for Determining Vasopressin Receptor Activity
The identification of agonists and antagonists of the V1a and V2 vasopressin receptors from humans, rats and dogs as well as the quantification of the activity of the compounds of the invention is carried out using recombinant cell lines. These cell lines originally derive from a hamster's ovary epithelial cell (Chinese Hamster Ovary, CHO K1, ATCC: American Type Culture Collection, Manassas, Va. 20108, USA). The test cell lines constitutively express the human, rat or dog V1a or V2 receptors. In case of the Gaq-coupled V1a receptors, cells are also stably transfected with a modified form of the calcium-sensitive photoproteins aequorin (human and rat V1a) or obelin (dog V1a), which, after reconstitution with the cofactor coelenterazine, emit light when there are increases in free calcium concentrations [Rizzuto R, Simpson A W, Brini M, Pozzan T, Nature 358, 325-327 (1992); Illarionov B A, Bondar V S, Illarionova V A, Vysotski E S, Gene 153 (2), 273-274 (1995)]. The resulting vasopressin receptor cells react to stimulation of the recombinantly expressed Via receptors by intracellular release of calcium ions, which can be quantified by the resulting photoprotein luminescence. The Gs-coupled V2 receptors are stably transfected into cell lines expressing the gene for firefly luciferase under control of a CRE-responsible promoter. Activation of V2 receptors induces the activation of the CRE-responsive promoter via cAMP increase, thereby inducing the expression of firefly luciferase. The light emitted by photoproteins of V1a cell lines as well as the light emitted by firefly luciferase of V2 cell lines corresponds to the activation or inhibition of the respective vasopressin receptor. The bioluminescence of the cell lines is detected using a suitable luminometer [Milligan G, Marshall F, Rees S, Trends in Pharmacological Sciences 17, 235-237 (1996)].
Vasopressin V2 Receptor Cell Lines:
On the day before the assay, the cells are plated out in culture medium (DMEM/F12, 2% FCS, 2 mM glutamine, 10 mM HEPES) in 384-well microtiter plates and kept in a cell incubator (96% humidity, 5% v/v CO2, 37C). On the day of the assay, test compounds in various concentrations and the agonist [Arg^8]-vasopressin at EC50 concentration are added together to the wells, and plates are incubated for 3 hours in a cell incubator. Upon addition of the cell lysis reagent Triton™ and the substrate luciferin, luminescence of firefly luciferase is measured in a luminometer.
Table 1A below lists individual IC50 values for the compounds of the invention (including racemic mixtures as well as separated enantiomers) that were obtained from cell lines transfected with the human V1a or V2 receptor. This means these IC50 values are the values for the prodrug and not for the underlying respective drug as the prodrug is mainly stable under the assay conditions.

Solubility = format: physicochemical; details: 24 h room temperature, max. 500 μg/ml; for solubility at 24 h: thermodynamic from solid
Description: For each substance 0.5-0.6 mg are weighed exactly. In each case, sufficient medium is added to the sample in such a way that a concentration of c=500 μg/ml is obtained. This sample solution is shaken for 24 h at room temperature and 1400 rpm.
A further sample weight of 0.5-0.6 mg is required for the DMSO calibration solution. This sample is filled with DMSO to a concentration of c=600 μg/ml. Two calibration solutions are prepared from this stock solution. In a 2 ml HPLC vial, 1000 μl of DMSO are initially introduced and 34.4 μl of the stock solution are pipetted (c=20 µg/ml). […] of this solution (c=20 μg/ml) are placed in a further 2 ml HPLC vial containing 500 μl of DMSO (c=2.5 μg/ml).
After shaking the test solutions, 230 μl of the supernatant are transferred into a centrifuge tube and centrifuged at 42 000 rpm (223 000 g) for 30 min. 180 μl of the supernatant are then taken and each diluted with DMSO (1:5 sample 1; 1:100 sample 2), and transferred to HPLC vials. The two calibration solutions and the dilute sample solutions are analyzed by HPLC. Quantification is performed over the corresponding peak areas.
Distilled water; trifluoroacetic acid (Merck; 1.08262.0100); acetonitrile (HPLC grade); DMSO (Merck; 8.02912.2500).
Fluka buffer, Order No. 33643 (11.76 g citric acid, 2.57 g sodium chloride and 2.72 g sodium hydroxide).
Fluka buffer, Order No. 33646 (3.52 g potassium dihydrogenphosphate, 7.26 g sodium hydrogen phosphate).
Solution of 6.18 g sodium chloride and 3.96 g sodium dihydrogen phosphate in 1 L distilled water, adjust with 1M aqueous sodium hydroxide solution to pH 7.4.
0.6057 g TRIS was dissolved in 95 ml water, adjust to pH 8.5 with aqueous hydrochloric acid, fill with water until 100 ml volume is reached.

[1] = Tris buffer pH 8.5, pH 8.5, aqueous buffer, pH = 8.5 Tris buffer
[2] = citrate buffer pH 4, pH 4, aqueous buffer, pH = 4 citrate buffer
[3] = phosphate buffer pH 7, pH 7, aqueous buffer, pH = 7.0 buffer

T1 sequence (P37288 whole entry): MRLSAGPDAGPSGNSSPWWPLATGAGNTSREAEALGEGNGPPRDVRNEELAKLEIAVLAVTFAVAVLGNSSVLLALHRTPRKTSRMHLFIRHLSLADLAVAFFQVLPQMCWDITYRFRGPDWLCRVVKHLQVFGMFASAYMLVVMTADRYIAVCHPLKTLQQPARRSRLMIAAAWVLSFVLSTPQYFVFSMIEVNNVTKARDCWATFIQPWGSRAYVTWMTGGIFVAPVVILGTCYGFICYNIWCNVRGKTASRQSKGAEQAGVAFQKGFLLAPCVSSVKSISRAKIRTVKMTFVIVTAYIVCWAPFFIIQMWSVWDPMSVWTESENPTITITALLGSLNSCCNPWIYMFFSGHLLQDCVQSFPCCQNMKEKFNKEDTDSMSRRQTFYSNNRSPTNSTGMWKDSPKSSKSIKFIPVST
T2 sequence (P30518 whole entry): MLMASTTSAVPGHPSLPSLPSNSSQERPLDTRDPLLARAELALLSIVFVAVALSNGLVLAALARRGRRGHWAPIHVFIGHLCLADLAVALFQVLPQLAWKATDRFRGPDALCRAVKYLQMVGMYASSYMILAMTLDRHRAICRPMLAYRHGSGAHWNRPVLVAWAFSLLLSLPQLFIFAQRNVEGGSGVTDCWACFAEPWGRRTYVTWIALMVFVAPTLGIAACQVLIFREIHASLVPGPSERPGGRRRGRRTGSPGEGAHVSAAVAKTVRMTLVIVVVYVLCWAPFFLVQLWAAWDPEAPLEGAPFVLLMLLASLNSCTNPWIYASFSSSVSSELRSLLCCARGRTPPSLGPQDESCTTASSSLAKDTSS

Solubility (Solubility; pH = 7.0 buffer)	SMILES	IC50 (human V1a receptor)	ratio IC50 hV2/hV1a (human V1a receptor)	IC50 (human V2 receptor)	solubility at 24 h (Solubility; [1])	solubility at 24 h (Solubility; [2])	solubility at 24 h (Solubility; [3])
	NC(=O)c1nc(Cn2nc(-c3ccc(Cl)cc3)n(C[C@H](OP(=O)(O)O)C(F)(F)F)c2=O)nn1-c1ncccc1C(F)(F)F [Example 1, (2S)-3-[1-({5-Carbamoyl-1-[3-(trifluoromethyl)pyridin-2-yl]-1H-1,2,4-triazol-3-yl}methyl)-3-(4-chlorophenyl)-5-oxo-1,5-dihydro-4H-1,2,4-triazol-4-yl]-1,1,1-trifluoropropan-2-yl Dihydrogen Phosphate]	0.0157 µM	12.3	0.193 µM	> 500 µg/mL	> 500 µg/mL	> 500 µg/mL
not detectable	NC(=O)c1nc(Cn2nc(-c3ccc(Cl)cc3)n(C[C@H](O)C(F)(F)F)c2=O)nn1-c1ncccc1C(F)(F)F [Example 4A, 3-({3-(4-Chlorophenyl)-5-oxo-4-[(2S)-3,3,3-trifluoro-2-hydroxypropyl]-4,5-dihydro-1H-1,2,4-triazol-1-yl}methyl)-1-[3-(trifluoromethyl)pyridin-2-yl]-1H-1,2,4-triazole-5-carboxamide]		141.0		6.7 µg/mL (≈ 11.6 µM)	8.7 µg/mL (≈ 15.1 µM)	
	NC(=O)c1nc(Cn2nc(-c3ccc(Cl)cc3)n(C[C@H](OP(=O)(O)O)C(F)(F)F)c2=O)nn1-c1ccccc1C(F)(F)F [Example 10, (2S)-3-[1-({5-Carbamoyl-1-[2-(trifluoromethyl)phenyl]-1H-1,2,4-triazol-3-yl}methyl)-3-(4-chlorophenyl)-5-oxo-1,5-dihydro-4H-1,2,4-triazol-4-yl]-1,1,1-trifluoropropan-2-yl Dihydrogen Phosphate]	0.0106 µM	4.4	0.047 µM	479 µg/mL	454 µg/mL	> 500 µg/mL
	NC(=O)c1nc(Cn2nc(-c3ccc(Cl)cc3)n(C[C@H](OP(=O)(O)O)C(F)(F)F)c2=O)nn1-c1ncccc1Cl [Example 17, (2S)-3-[1-{[5-Carbamoyl-1-(3-chloropyridin-2-yl)-1H-1,2,4-triazol-3-yl]methyl}-3-(4-chloro-phenyl)-5-oxo-1,5-dihydro-4H-1,2,4-triazol-4-yl]-1,1,1-trifluoropropan-2-yl Dihydrogen Phosphate]	0.0098 µM	13.3	0.13 µM	> 500 µg/mL	> 500 µg/mL	> 500 µg/mL
